Assay results: publication PMC4585737, “Lipoproteins/peptides are sepsis-inducing toxins from bacteria that can be neutralized by synthetic anti-endotoxin peptides” (Scientific Reports, 2015)
Entries after “also recorded” stand apart in the source; their conditions may differ.

What was measured:
human mononuclear cells = test: TNFα production in human mononuclear cells (MNC) stimulated by LP, LTA or PGN, and its inhibition by SALP; format: cell-based
Protocol: The stimulation of MNC was performed as described previously. Briefly, MNC were isolated from heparinized blood of healthy donors by the Hypaque-Ficoll density gradient method. The cell number was equilibrated at 5 × 10^6 cells/ml RPMI 1640 containing 2 mM L-glutamine, 100 U/ml penicillin and 100 μg/ml streptomycin. For stimulation, 200 μl/well MNC were transferred into 96-well culture plates. The stimuli were serially diluted in RPMI 1640 and added to the cultures at 20 μl per well. The cultures were incubated for 4 h at 37 °C under 5% CO2. Cell-free supernatants were collected after centrifugation of the culture plates for 10 min at 400 × g and stored at −20 °C until the determination of the cytokine content. Immunological determination of TNFα in the cell supernatant was performed in a sandwich-ELISA as described earlier (OptEIA; BD, Heidelberg, Germany). TNFα was determined and measured following manufacturer’s instructions and results are the average of two assays.
LP preparations were pre-warmed for 30 min at 37 °C, and added to the cultures at 20 μl per well. In inhibition experiments, different SALP were added directly after LPS/LP/LTA administration.
Since the data of the stimulation of human MNC by the bacterial and synthetic LP was taken over a time period of more than 6 years, the TNFα production lead to considerable variations due to different batches of LP and of Pep19-2.5, and in particular due to variations resulting from blood samples of different donors. Because the main emphasis laid here is the efficiency of the peptide to inhibit the cytokine production, most figures describe the inhibition efficieny of the peptide in %, by presenting the means ± SEM of at least 3 independent experiments. The absolute values of the cytokine production, where of note, is given separately in the text.

FSL-1 aggregates = test: FRET intercalation of peptide into FSL-1 aggregates; format: binding
Source text: The ability of selected peptides to intercalate into LP aggregates was investigated exemplarily for FSL-1 and for LP SitC by FRET as described earlier. Briefly, the LP samples were doubly labelled with the fluorescent phospholipid dyes N-(7-nitrobenz-2-oxa-1,3-diazol-4-yl)-phosphatidyl ethanolamine (NBD-PE) and N-(lissamine rhodamine B sulfonyl)-phosphatidylethanolamine (Rh-PE) (Molecular Probes, Life Technologies). Intercalation of unlabeled molecules into the doubly labeled liposomes leads to probe dilution and to a lower FRET efficiency: Therefore, the emission intensity of the donor ID increases and that of the acceptor IA decreases (for the sake of clarity, only the quotient of the donor and acceptor emission intensity will be shown here).
In all the experiments, the peptides (100 μl of a 100 μM Hepes solution) were added to doubly labelled LP (900 μl of a 10 μM solution) at 50 s after equilibration. NBD-PE was excited at 470 nm and the donor and acceptor fluorescence intensities were monitored at 531 and 593 nm, respectively, and the fluorescence signal ID/IA was recorded for further 250 s. The measurement was repeated twice.

Question: With “GCKKYRRFRWKFKGKFWFWG [Aspidasept®, synthetic anti-LPS peptide (SALP), 20′mer, anti-septic therapeutic drug candidate]” as the sequence, how does the “inhibition of TNFα induction by LP, LTA and PGN” value (human mononuclear cells; 10:1 excess weight ratio of the peptide) read?
Answer: takes place in most cases

Question: What about the “cytokine expression induced by LP, LTA and PGN in presence of peptide” value (human mononuclear cells; 100:1 weight ratio of the peptide) of the same sequence?
Answer: no longer any detectable cytokine expression

Question: What about the “reduction of FSL-1-induced TNFα secretion” value (human mononuclear cells; stimulus FSL-1 100 and 10 ng/ml, 10-fold (10:1 weight%) excess of peptide) of the same sequence?
Answer: considerable reduction; also recorded: good degree of inhibition

Question: What about the “reduction of FSL-1-induced TNFα secretion” value (human mononuclear cells; stimulus FSL-1, 100:1 excess of peptide) of the same sequence?
Answer: nearly completely abolished

Question: And the “inhibition of LP dependent TNFα production” value (human mononuclear cells; stimulus LP OspA and OspC, 10000 and 1000 ng/ml, peptide:LP ratio 10:1)?
Answer: inhibited

Question: What about the “LP dependent TNFα production in presence of peptide” value (human mononuclear cells; stimulus LP OspA and OspC, peptide:LP 100:1 concentration ratio, data not shown) of the same sequence?
Answer: undetectable levels

Question: And the “reduction of LTA-dependent TNFα response” value (human mononuclear cells; stimulus LTA from S. aureus SA113Δlgt, 10000 and 1000 ng/ml, 10-fold excess of peptide)?
Answer: effectively reduced

Question: What about the “inhibition of pro-inflammatory activity of MALP-2” value (human mononuclear cells; stimulus MALP-2, 100:1 weight% excess of the peptide, data not shown) of the same sequence?
Answer: nearly complete inhibition

Question: What about the “inhibition of PGN-induced TNFα response” value (human mononuclear cells; stimulus PGN from S. aureus SA113Δlgt, 10000 and 1000 ng/ml, 10-fold excess of peptide) of the same sequence?
Answer: totally inhibited

Question: And the “inhibition of Pam3CSK4-induced cytokine (TNFα) production” value (human mononuclear cells; stimulus Pam3CSK4 1000, 100, 10 ng/ml, [LP]:[Pep] up to 1:100 weight%)?
Answer: only a minor inhibitory effect; also recorded: no significant influence; also recorded: no or only a small inhibition

Question: What about the “inhibition of LTA-induced TNFα” value (human mononuclear cells; stimulus commercial LTA from B. subtilis, 10:1 weight% excess of peptide) of the same sequence?
Answer: complete inhibition

Question: And the “inhibition of LTA-induced cytokine” value (human mononuclear cells; stimulus commercial LTA from S. aureus, data not shown)?
Answer: inhibited

Question: And the “FRET: intercalation on increase in peptide concentration” value (FSL-1 aggregates; FSL-1:Pep19-2.5 1:1 M/M vs 1:0.1 M/M)?
Answer: did not lead to a further increase in intercalation

Question: What about the “FRET: incorporation into the LP aggregate” value (FSL-1 aggregates; [LP]:[Aspidasept] 1:0.1 molar, peptide added after 50 s, ID/IA signal) of the same sequence?
Answer: instantaneous incorporation
